Measured values reported in patent US20230135894A1, “MK2 DEGRADERS AND USES THEREOF” (Kymera Therapeutics, Inc., priority 2021, published 2023).

Experiments:
MK2 [1] = molecular target: T1, MK2 (Homo sapiens, UniProt P49137); experiment: MK2 degradation in human SW1353 cells (MSD, 24 h); type: cell-based; design: endogenous in cells; host or cells: SW-1353 (ATCC HTB-94); key to MK2 MSD SW1353 degradation 24 h GMean External Abs DC50: A (<0.001 μM); B (0.001-0.01 μM); C (0.01-0.1 μM); D (>0.1 μM); —: “-”=not tested or inactive; key to MK2 MSD SW 1353 24 h Dmax %: —: “-”=not tested or inactive; conditions: for Dmax: read-out: MK2 MSD SW 1353 24 h Dmax %; for DC50: read-out: MK2 MSD SW1353 degradation 24 h GMean External Abs DC50
Outline: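 SW1353 chondrosarcoma cells were treated with up to 10-point serial dilutions (0.1% DMSO) for 24 h at 37 °C, then lysed in RIPA buffer. MK2 levels were quantified by MSD sandwich immunoassay; DC50 came from a 4-parameter logistic fit normalised to DMSO-treated cells (high) and lysis buffer (low).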

MK2 [2] = molecular target: T1, MK2; experiment: MK2 degradation in human THP-1 monocytic cells (MSD, 24 h); type: cell-based; design: endogenous in cells; conditions: for Dmax: THP-1, THP-1 cells; for DC50: THP-1 cells, read-out: MK2 MSD THP-1 degradation 24 h GMean External Abs DC50
Outline: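 THP-1 cells (200,000/well) treated 24 h at 37 °C with compound dilution series (up to 10 points, 0.1% DMSO). MK2 in RIPA lysates quantified by MSD sandwich immunoassay. DC50 from 4-parameter logistic fit, DMSO-treated cells as high and lysis buffer as low signal.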

T1 sequence (P49137 whole entry): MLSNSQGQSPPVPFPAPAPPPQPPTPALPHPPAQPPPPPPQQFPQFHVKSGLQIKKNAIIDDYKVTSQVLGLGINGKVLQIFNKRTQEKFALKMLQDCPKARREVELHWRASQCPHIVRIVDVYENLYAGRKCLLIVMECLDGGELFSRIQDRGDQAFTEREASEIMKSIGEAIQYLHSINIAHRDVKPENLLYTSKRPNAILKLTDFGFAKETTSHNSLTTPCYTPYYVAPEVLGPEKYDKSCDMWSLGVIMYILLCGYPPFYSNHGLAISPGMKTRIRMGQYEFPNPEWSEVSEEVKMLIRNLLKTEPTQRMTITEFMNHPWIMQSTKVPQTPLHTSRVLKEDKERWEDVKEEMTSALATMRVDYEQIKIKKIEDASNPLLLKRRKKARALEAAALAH

Compound	Dmax (MK2 [1]) [%]	DC50 (MK2 [1]) [nM]	Dmax (MK2 [2]) [%]	DC50 (MK2 [2]) [nM]	MK2 MSD SW 1353 24 h Dmax % (MK2 [1])	MK2 MSD SW1353 degradation 24 h GMean External Abs DC50 (MK2 [1])
C[C@@H]1CNc2c(sc3ccc4nc(-c5ccc(N6CCN(C[C@@H]7CCN(c8ccc9c(c8)n(C)c(=O)n9C8CCC(=O)NC8=O)C7)CC6)cc5)ccc4c23)C(=O)N1 (stereo partly shown) [Compound I-214]	> 75	< 1	50 to 75	1 to 10		
Cn1c(=O)n(C2CCC(=O)NC2=O)c2ccc(N3CCC(CN4CCN(c5cc(-c6ccc7cc[nH]c7c6)cc(-c6cc(-c7cc8c([nH]7)CCNC8=O)ccn6)c5)CC4)CC3)cc21 (stereo not shown) [Compound I-206]			50 to 75	1 to 10	—	—
C[C@@H]1CNc2c(sc3ccc4nc(-c5cccc(N6CCN(CCCc7cccc8c7n(C)c(=O)n8C7CCC(=O)NC7=O)CC6)c5)ccc4c23)C(=O)N1 (stereo partly shown) [Compound I-93]	> 75	1 to 10	> 75	< 1		
C[C@@H]1CNc2c(sc3ccc4nc(-c5cccc(C#CCNC(=O)COCCOCCc6cccc7c6n(C)c(=O)n7C6CCC(=O)NC6=O)c5)ccc4c23)C(=O)N1 (stereo partly shown) [Compound I-50]	> 75	1 to 10	> 75	1 to 10		
Cn1c(=O)n(C2CCC(=O)NC2=O)c2ccc(N3CCC(CN4CCN(c5ccc(-c6cc(-c7cc8c([nH]7)C7(CCC7)CNC8=O)ccn6)cc5)CC4)CC3)cc21 (stereo not shown) [Compound I-205]			> 75	< 1	—	—
C[C@@H]1CNc2c(sc3ccc4nc(-c5ccc(N6CCN(CC7CCN(c8cccc9c8n(C)c(=O)n9C8CCC(=O)NC8=O)CC7)CC6)cc5)ccc4c23)C(=O)N1 (stereo partly shown) [Compound I-126]	> 75	1 to 10	> 75	1 to 10		
CC(C)c1cc(-c2ccc3c(ccc4sc5c(c43)NC[C@@H](C)NC5=O)n2)cc(N2CCN(CC3CCN(c4ccc5c(c4)n(C)c(=O)n5C4CCC(=O)NC4=O)CC3)CC2)c1 (stereo partly shown) [Compound I-231]	> 75	1 to 10	> 75	1 to 10		
C[C@@H]1CNc2c(sc3ccc4nc(-c5ccc(CNC(=O)CCCCCCCCCc6cccc7c6n(C)c(=O)n7C6CCC(=O)NC6=O)cc5)ccc4c23)C(=O)N1 (stereo partly shown) [Compound I-86]	> 75	1 to 10	> 75	1 to 10		
C[C@@H]1CNc2c(sc3ccc4nc(-c5ccc(N6CCN(CC7CCN(c8ccc9c(c8)n(C)c(=O)n9C8CCC(=O)NC8=O)CC7)CC6)nc5)ccc4c23)C(=O)N1 (stereo partly shown) [Compound I-129]	> 75	< 1	> 75	< 1		
C[C@@H]1CNc2c(sc3ccc4nc(-c5cccc(N6CCC(CN7CCN(CCc8cccc9c8n(C)c(=O)n9C8CCC(=O)NC8=O)CC7)CC6)c5)ccc4c23)C(=O)N1 (stereo partly shown) [Compound I-107]	> 75	1 to 10	> 75	< 1		
C[C@@H]1CNc2c(sc3ccc4nc(-c5cccc(C#CCCNC(=O)COCCOCCc6ccc7c(c6)n(C)c(=O)n7C6CCC(=O)NC6=O)c5)ccc4c23)C(=O)N1 (stereo partly shown) [Compound I-49]	> 75	1 to 10	> 75	1 to 10		
Cn1c(=O)n(C2CCC(=O)NC2=O)c2cccc(CCCCCCCN3CCN(c4ccc(F)c(-c5cc(-c6cc7c([nH]6)CCNC7=O)ccn5)c4)CC3)c21 (stereo not shown) [Compound I-135]	< 50	> 100	< 50	> 100		
Cc1cc(N2CCN(CC3CCN(c4ccc5c(c4)n(C)c(=O)n5C4CCC(=O)NC4=O)CC3)CC2)ccc1-c1cc(-c2cc3c([nH]2)C2(CC2)CNC3=O)ccn1 (stereo not shown) [Compound I-217]	< 50	> 100	< 50	> 100		
C[C@@H]1CNc2c(sc3ccc4nc(N5CC6CCC(C5)N6CC5CCN(c6ccc7c(c6)n(C)c(=O)n7C6CCC(=O)NC6=O)CC5)ccc4c23)C(=O)N1 (stereo partly shown) [Compound I-433]	< 50	> 100	< 50	> 100		
Cn1c(=O)n(C2CCC(=O)NC2=O)c2ccc(CCN3CCN(c4ccc(-c5cc(-c6cc7c([nH]6)C6(CC6)CNC7=O)ccn5)cc4)CC3)cc21 (stereo not shown) [Compound I-202]			< 50	> 100	—	—
O=C1CCN(c2cncc3c(N4CC(CN5CCN(c6ccc(-c7cc(-c8cc9c([nH]8)CCNC9=O)ccn7)cc6)CC5)C4)cccc23)C(=O)N1 [Compound I-197]			> 75	10 to 100	—	—

Continued, values first:

Dmax (MK2 [1]) [%]	DC50 (MK2 [1]) [nM]	Dmax (MK2 [2]) [%]	DC50 (MK2 [2]) [nM]	MK2 MSD SW 1353 24 h Dmax % (MK2 [1])	MK2 MSD SW1353 degradation 24 h GMean External Abs DC50 (MK2 [1])	Compound
> 75	< 1	> 75	< 1			C[C@@H]1CNc2c(sc3ccc4nc(-c5ccnc(N6CCN(CC7CCN(c8ccc9c(c8)n(C)c(=O)n9C8CCC(=O)NC8=O)CC7)CC6)c5)ccc4c23)C(=O)N1 (stereo partly shown) [Compound I-278]
> 75	< 1	> 75	< 1			C[C@@H]1CNc2c(sc3ccc4nc(N5CCN(CCC6CCN(c7ccc8c(c7)n(C)c(=O)n8C7CCC(=O)NC7=O)CC6)CC5)ccc4c23)C(=O)N1 (stereo partly shown) [Compound I-445]
> 75	1 to 10	> 75	1 to 10			COc1ccc2c(c1N1CCC(CN3CCN(c4ccc(-c5ccc6c(ccc7sc8c(c76)NC[C@@H](C)NC8=O)n5)cn4)CC3)CC1)n(C)c(=O)n2C1CCC(=O)NC1=O (stereo partly shown) [Compound I-255]
> 75	< 1	> 75	1 to 10			C[C@@H]1CNc2c(sc3ccc4nc(N5CCC6(CC5)CN(C5CCN(c7cccc8c7n(C)c(=O)n8C7CCC(=O)NC7=O)CC5)C6)ccc4c23)C(=O)N1 (stereo partly shown) [Compound I-441]
> 75	1 to 10	> 75	1 to 10			C[C@@H]1CNc2c(sc3ccc4nc(-c5ccc(N6CCC(CN7CCN(c8cccc9c8n(C)c(=O)n9C8CCC(=O)NC8=O)CC7)CC6)cc5F)ccc4c23)C(=O)N1 (stereo partly shown) [Compound I-307]
> 75	< 1	50 to 75	1 to 10			C[C@@H]1CNc2c(sc3ccc4nc(N5CCC(N6CCC7(CC6)CN(c6ccc8c(c6)n(C)c(=O)n8C6CCC(=O)NC6=O)C7)CC5)ccc4c23)C(=O)N1 (stereo partly shown) [Compound I-402]
> 75	1 to 10	> 75	1 to 10			C[C@@H]1CNc2c(sc3ccc4nc(-c5ccc(N6CCC(CN7CCN(c8ccc9c(c8)CN(C8CCC(=O)NC8=O)C9=O)CC7)CC6)cc5)ccc4c23)C(=O)N1 (stereo partly shown) [Compound I-313]
> 75	< 1	> 75	< 1			COc1ccc2c(c1N1CCN(CC3CCN(c4ccc(-c5ccc6c(ccc7sc8c(c76)NC[C@@H](C)NC8=O)n5)cn4)CC3)CC1)n(C)c(=O)n2C1CCC(=O)NC1=O (stereo partly shown) [Compound I-256]
> 75	< 1	> 75	< 1			C[C@@H]1CNc2c(sc3ccc4nc(-c5ccc(N6CCC(CN7CCN(c8ccc9c(c8)n(C)c(=O)n9C8CCC(=O)NC8=O)CC7)CC6)cc5)ccc4c23)C(=O)N1 (stereo partly shown) [Compound I-314]
> 75	1 to 10	> 75	1 to 10			C[C@@H]1CNc2c(sc3ccc4nc(N5CCC(CN6CCN(c7ccc8c(c7)n(C)c(=O)n8C7CCC(=O)NC7=O)CC6)CC5)ccc4c23)C(=O)N1 (stereo partly shown) [Compound I-264]
> 75	1 to 10	> 75	1 to 10			C[C@@H]1CN(C)c2c(sc3ccc4nc(-c5ccc(N6CCN(CC7CCN(c8ccc9c(c8)n(C)c(=O)n9C8CCC(=O)NC8=O)CC7)CC6)nc5)ccc4c23)C(=O)N1 (stereo partly shown) [Compound I-268]
< 50	> 100	< 50	> 100			Cn1c(=O)n(C2CCC(=O)NC2=O)c2ccc(N3CCC(CN4CCN(c5ccc(-c6cc(-c7cc8c(s7)CCNC8=O)ccn6)cc5)CC4)CC3)cc21 (stereo not shown) [Compound I-406]
> 75	< 1	> 75	< 1			C[C@@H]1CNc2c(sc3ccc4nc(-c5ccc(N6CCN(CC7CN(c8ccc9c(c8)n(C)c(=O)n9C8CCC(=O)NC8=O)C7)CC6)cc5F)ccc4c23)C(=O)N1 (stereo partly shown) [Compound I-237]
> 75	1 to 10	50 to 75	10 to 100			Cn1c(=O)n(C2CCC(=O)NC2=O)c2ccc(N3CCC(CN4CCN(c5cc(-c6ccc7cc[nH]c7c6)cc(-n6cc(-c7ccc8c(c7)CCNC8=O)c(N)n6)c5)CC4)CC3)cc21 (stereo not shown) [Compound I-461]
> 75	< 1	> 75	< 1			C[C@@H]1CNc2c(sc3ccc4nc(N5CCN(C6CC7(CCN(c8ccc9c(c8)n(C)c(=O)n9C8CCC(=O)NC8=O)CC7)C6)CC5)ccc4c23)C(=O)N1 (stereo partly shown) [Compound I-451]
